Assay results reported in US4100346A, “Certain 7(o-amino-methyl- or methylaminomethylphenyl- or cyclohexadienyl- or thienylacetamide)-3[1-carboxymethyl-(or ethyl- or propyl-)-tetrazol-5-ylthiomethyl]-3-cephem-4-carboxylic acids” (Bristol-Myers Company, priority 1976, dated 1978).
Values after ≈ are worked out from the molar mass of the structure shown. Like-named read-outs stand apart in the source and are kept apart here.

How the values were obtained:
[1] = system: Escherichia coli; experiment: Effect of inoculum size on susceptibility of Enterobacteriaceae
[2] = system: Pasteurella multocida; experiment: Growth inhibitory activity, antibiotic dilution technique; settings: read-out: Minimum inhibitory concentration
[3] = system: Arizona hinshawii; experiment: as above; settings: Salmonella enterica, read-out: Minimum inhibitory concentration
[4] = system: Proteus vulgaris; experiment: Minimum growth inhibitory and bactericidal concentrations for Enterobacteriaceae; type: cell-based; settings: Proteus vulgaris, inoculum 10^4 cells; for MBC: read-out: MBC, minimum bactericidal concentration; for MIC: read-out: MIC, Minimum growth inhibitory concentration
Text: (§1) Miscellaneous. Methods for determining bactericidal activity and susceptibility to cell-free β-lactamase were those previously used; Leitner et al., BL-S640, A Cephalosporin With a Broad Spectrum of Antibacterial Activity: Properties in vitro, Antimicrob. Agents Chemother. 7:298-305 (1975).
(§2) *MIC, Minimum growth inhibitory concentration; MBC, minimum bactericidal
(§3) concentration; expressed as micrograms per milliliter. The inoculum was […]

[5] = system: Proteus mirabilis; experiment: as above; type: cell-based; settings: for MBC: read-out: MBC, minimum bactericidal concentration; for MIC: read-out: MIC, Minimum growth inhibitory concentration
Text: as §1, §2, §3

[6] = system: Proteus rettgeri; experiment: as above; type: cell-based; settings: Providencia rettgeri, inoculum 10^4 cells; for MBC: read-out: MBC, minimum bactericidal concentration; for MIC: read-out: MIC, Minimum growth inhibitory concentration
Text: as §1, §2, §3

[7] = system: Klebsiella pneumoniae; experiment: as above; type: cell-based; settings: for MBC: read-out: MBC, minimum bactericidal concentration; for MIC: read-out: MIC, Minimum growth inhibitory concentration
Text: as §1, §2, §3

[8] = system: Enterobacter cloacae; experiment: as above; type: cell-based; settings: for MBC: read-out: MBC, minimum bactericidal concentration; for MIC: read-out: MIC, Minimum growth inhibitory concentration
Text: as §1, §2, §3

[9] = system: Enterobacter aerogenes; experiment: as above; type: cell-based; settings: Klebsiella aerogenes, inoculum 10^4 cells; for MBC: read-out: MBC, minimum bactericidal concentration; for MIC: read-out: MIC, Minimum growth inhibitory concentration
Text: as §1, §2, §3

[10] = system: Escherichia coli; experiment: as above; type: cell-based; settings: for MBC: read-out: MBC, minimum bactericidal concentration; for MIC: read-out: MIC, Minimum growth inhibitory concentration
Text: as §1, §2, §3

[11] = system: Enterobacter aerogenes; experiment: Effect of inoculum size on susceptibility of Enterobacteriaceae; settings: Klebsiella aerogenes, read-out: Minimum Inhibitory Concentration, Enterobacter aerogenes strain 1
[12] = system: Citrobacter sp.; experiment: Growth inhibitory activity, antibiotic dilution technique
[13] = target: β-lactamase Class I Type b, Escherichia coli 719 (Escherichia coli, UniProt P00811); type: biochemical
Sequence of β-lactamase Class I Type b, Escherichia coli 719 (P00811 20-377): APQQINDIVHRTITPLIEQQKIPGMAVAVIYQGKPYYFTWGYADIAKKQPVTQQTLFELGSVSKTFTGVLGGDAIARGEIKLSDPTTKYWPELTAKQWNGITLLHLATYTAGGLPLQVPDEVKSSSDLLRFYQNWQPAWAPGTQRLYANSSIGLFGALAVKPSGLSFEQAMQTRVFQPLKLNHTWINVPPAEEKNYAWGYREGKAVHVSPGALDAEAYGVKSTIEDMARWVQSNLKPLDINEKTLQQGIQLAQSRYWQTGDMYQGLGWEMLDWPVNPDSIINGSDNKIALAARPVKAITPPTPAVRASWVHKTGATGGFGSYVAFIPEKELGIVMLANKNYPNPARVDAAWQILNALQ
Method: (§4) Miscellaneous. Methods for determining bactericidal activity and susceptibility to cell-free β-lactamase were those previously used; Leitner et al., BL-S640, A Cephalosporin With a Broad Spectrum of Antibacterial Activity: Properties in vitro, Antimicrob. Agents Chemother.
(§5) Susceptibility to β-lactamase. Susceptibility to enzymic hydrolysis was assessed by determining relative rates of hydrolysis by cell-free preparations of various β-lactamases (Table 6).

[14] = target: T1, β-lactamase Class III Type a, Escherichia coli TEM (Escherichia coli, UniProt P62593); type: biochemical
T1 construct: cell-free preparations of various β-lactamases; endogenous in cells; host or cells: Escherichia coli strain TEM
T1 sequence (P62593 24-286 limits assumed): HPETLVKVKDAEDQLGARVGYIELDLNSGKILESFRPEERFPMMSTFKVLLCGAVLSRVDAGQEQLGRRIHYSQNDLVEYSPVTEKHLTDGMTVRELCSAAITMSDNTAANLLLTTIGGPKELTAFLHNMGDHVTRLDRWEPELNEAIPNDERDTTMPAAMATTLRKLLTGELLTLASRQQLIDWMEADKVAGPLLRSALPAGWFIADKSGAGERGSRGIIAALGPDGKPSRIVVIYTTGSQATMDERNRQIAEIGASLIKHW
Method: as §4, §5

[15] = system: β-lactamase Class II Type a, Proteus mirabilis 1266; type: biochemical
Method: as §4, §5

[16] = system: β-lactamase Class IV Type b, Klebsiella pneumoniae 1169; type: biochemical
Method: as §4, §5

[17] = system: β-lactamase Class IV Type a, Klebsiella pneumoniae 53; type: biochemical
Method: as §4, §5

[18] = target: β-lactamase Class I Type a, Enterobacter cloacae 214 (Enterobacter cloacae, UniProt P05364); type: biochemical
Sequence of β-lactamase Class I Type a, Enterobacter cloacae 214 (P05364 21-381): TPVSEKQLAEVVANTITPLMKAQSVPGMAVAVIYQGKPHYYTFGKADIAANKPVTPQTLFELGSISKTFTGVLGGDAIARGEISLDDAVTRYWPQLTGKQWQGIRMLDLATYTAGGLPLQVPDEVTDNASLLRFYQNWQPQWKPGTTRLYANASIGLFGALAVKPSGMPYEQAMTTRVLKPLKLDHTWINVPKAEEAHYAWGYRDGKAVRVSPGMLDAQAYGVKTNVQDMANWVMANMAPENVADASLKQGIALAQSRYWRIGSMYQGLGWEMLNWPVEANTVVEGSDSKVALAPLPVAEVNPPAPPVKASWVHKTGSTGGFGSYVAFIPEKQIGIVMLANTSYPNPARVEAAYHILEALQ
Method: as §4, §5

[19] = system: Erwinia sp.; experiment: Growth inhibitory activity, antibiotic dilution technique; settings: read-out: Minimum inhibitory concentration
[20] = Proteus mirabilis strain 1, inoculum 10^4 cells
[21] = Proteus mirabilis strain 2, inoculum 10^4 cells
[22] = Proteus mirabilis strain 3, inoculum 10^4 cells
[23] = Proteus mirabilis strain 4, inoculum 10^4 cells
[24] = Proteus mirabilis strain 5, inoculum 10^4 cells
[25] = Klebsiella pneumoniae strain 1, inoculum 10^4 cells
[26] = Klebsiella pneumoniae strain 2, inoculum 10^4 cells
[27] = Klebsiella pneumoniae strain 3, inoculum 10^4 cells
[28] = Klebsiella pneumoniae strain 4, inoculum 10^4 cells
[29] = Klebsiella pneumoniae strain 5, inoculum 10^4 cells
[30] = Klebsiella pneumoniae strain 6, inoculum 10^4 cells
[31] = Enterobacter cloacae strain 3, inoculum 10^4 cells
[32] = Enterobacter cloacae strain 4, inoculum 10^4 cells
[33] = Enterobacter cloacae strain 8, inoculum 10^4 cells
[34] = Enterobacter aerogenes strain 1
[35] = Enterobacter aerogenes strain 2
[36] = Enterobacter aerogenes strain 3
[37] = Escherichia coli strain 1, inoculum 10^4 cells
[38] = Escherichia coli strain 2, inoculum 10^4 cells
[39] = Escherichia coli strain 3, inoculum 10^4 cells
[40] = Escherichia coli strain 4, inoculum 10^4 cells
[41] = Escherichia coli strain 5, inoculum 10^4 cells
[42] = Escherichia coli strain 6, inoculum 10^4 cells

## O=C(Cc1cccs1)N[C@@H]1C(=O)N2C(C(=O)[O-])=C(C[n+]3ccccc3)CS[C@H]12 [Cephaloridine]
[1]; read-out: Minimum Inhibitory Concentration, Escherichia coli strain 1, A, Inoculum of 10^2 organisms
  MIC: 2 µg/mL (≈ 4.81 µM)
[1]; read-out: Minimum Inhibitory Concentration, Escherichia coli strain 1, B, Inoculum of 10^6 organisms
  MIC: 8 µg/mL (≈ 19.3 µM)
[1]; read-out: Minimum Inhibitory Concentration, Escherichia coli strain 2, A, Inoculum of 10^2 organisms
  MIC: 4 µg/mL (≈ 9.63 µM)
[1]; read-out: Minimum Inhibitory Concentration, Escherichia coli strain 2, B, Inoculum of 10^6 organisms
  MIC: 16 µg/mL (≈ 38.5 µM)
[1]; read-out: Minimum Inhibitory Concentration, Escherichia coli strain 3, A, Inoculum of 10^2 organisms
  MIC: 2 µg/mL (≈ 4.81 µM)
[1]; read-out: Minimum Inhibitory Concentration, Escherichia coli strain 3, B, Inoculum of 10^6 organisms
  MIC: 4 µg/mL (≈ 9.63 µM)
[1]; read-out: Minimum Inhibitory Concentration, Escherichia coli strain 4, A, Inoculum of 10^2 organisms
  MIC: 2 µg/mL (≈ 4.81 µM)
[1]; read-out: Minimum Inhibitory Concentration, Escherichia coli strain 4, B, Inoculum of 10^6 organisms
  MIC: 4 µg/mL (≈ 9.63 µM)
[1]; read-out: Minimum Inhibitory Concentration, Escherichia coli strain 5, A, Inoculum of 10^2 organisms
  MIC: 4 µg/mL (≈ 9.63 µM)
[1]; read-out: Minimum Inhibitory Concentration, Escherichia coli strain 5, B, Inoculum of 10^6 organisms
  MIC: 8 µg/mL (≈ 19.3 µM)
[1]; read-out: Minimum Inhibitory Concentration, Escherichia coli strain 6, A, Inoculum of 10^2 organisms
  MIC: 2 µg/mL (≈ 4.81 µM)
[1]; read-out: Minimum Inhibitory Concentration, Escherichia coli strain 6, B, Inoculum of 10^6 organisms
  MIC: 8 µg/mL (≈ 19.3 µM)
[1]; read-out: Minimum Inhibitory Concentration, Escherichia coli strain 7, A, Inoculum of 10^2 organisms
  MIC: 2 µg/mL (≈ 4.81 µM)
[1]; read-out: Minimum Inhibitory Concentration, Escherichia coli strain 7, B, Inoculum of 10^6 organisms
  MIC: 4 µg/mL (≈ 9.63 µM)
[2]
  MIC: 0.5 µg/mL (≈ 1.2 µM)
[3]
  MIC: 2 µg/mL (≈ 4.81 µM)
[4]; Proteus vulgaris strain 1
  MBC: 8 µg/mL (≈ 19.3 µM)
  MIC: 8 µg/mL (≈ 19.3 µM)
[4]; Proteus vulgaris strain 2
  MBC: 16 µg/mL (≈ 38.5 µM)
  MIC: 8 µg/mL (≈ 19.3 µM)
[4]; Proteus vulgaris strain 4
  MBC: 16 µg/mL (≈ 38.5 µM)
  MIC: 8 µg/mL (≈ 19.3 µM)
[5]; [20]
  MBC: 16 µg/mL (≈ 38.5 µM)
  MIC: 8 µg/mL (≈ 19.3 µM)
[5]; [21]
  MBC: 8 µg/mL (≈ 19.3 µM)
  MIC: 8 µg/mL (≈ 19.3 µM)
[5]; [22]
  MBC: 8 µg/mL (≈ 19.3 µM)
  MIC: 8 µg/mL (≈ 19.3 µM)
[5]; [23]
  MBC: 8 µg/mL (≈ 19.3 µM)
  MIC: 8 µg/mL (≈ 19.3 µM)
[5]; [24]
  MBC: 8 µg/mL (≈ 19.3 µM)
  MIC: 4 µg/mL (≈ 9.63 µM)
[6]; Proteus rettgeri strain 2
  MBC: 0.5 µg/mL (≈ 1.2 µM)
  MIC: 0.5 µg/mL (≈ 1.2 µM)
[6]; Proteus rettgeri strain 3
  MBC: > 250 µg/mL
  MIC: 32 µg/mL (≈ 77 µM)
[7]; [25]
  MBC: 4 µg/mL (≈ 9.63 µM)
  MIC: 2 µg/mL (≈ 4.81 µM)
[7]; [26]
  MBC: 4 µg/mL (≈ 9.63 µM)
  MIC: 4 µg/mL (≈ 9.63 µM)
[7]; [27]
  MBC: 2 µg/mL (≈ 4.81 µM)
  MIC: 2 µg/mL (≈ 4.81 µM)
[7]; [28]
  MBC: 4 µg/mL (≈ 9.63 µM)
  MIC: 4 µg/mL (≈ 9.63 µM)
[7]; [29]
  MBC: 8 µg/mL (≈ 19.3 µM)
  MIC: 8 µg/mL (≈ 19.3 µM)
[7]; [30]
  MBC: 2 µg/mL (≈ 4.81 µM)
  MIC: 2 µg/mL (≈ 4.81 µM)
[8]; [31]
  MBC: 16 µg/mL (≈ 38.5 µM)
  MIC: 16 µg/mL (≈ 38.5 µM)
[8]; [32]
  MBC: > 250 µg/mL
  MIC: > 250 µg/mL
[8]; [33]
  MBC: > 250 µg/mL
  MIC: > 250 µg/mL
[9]; [34]
  MBC: > 250 µg/mL
  MIC: > 250 µg/mL
[9]; [35]
  MBC: > 250 µg/mL
  MIC: 250 µg/mL (≈ 602 µM)
[9]; [36]
  MBC: 250 µg/mL (≈ 602 µM)
  MIC: 250 µg/mL (≈ 602 µM)
[10]; [37]
  MBC: 4 µg/mL (≈ 9.63 µM)
  MIC: 4 µg/mL (≈ 9.63 µM)
[10]; [38]
  MBC: 16 µg/mL (≈ 38.5 µM)
  MIC: 16 µg/mL (≈ 38.5 µM)
[10]; [39]
  MBC: 2 µg/mL (≈ 4.81 µM)
  MIC: 2 µg/mL (≈ 4.81 µM)
[10]; [40]
  MBC: 4 µg/mL (≈ 9.63 µM)
  MIC: 4 µg/mL (≈ 9.63 µM)
[10]; [41]
  MBC: 4 µg/mL (≈ 9.63 µM)
  MIC: 4 µg/mL (≈ 9.63 µM)
[10]; [42]
  MBC: 8 µg/mL (≈ 19.3 µM)
  MIC: 4 µg/mL (≈ 9.63 µM)
[11]; A, Inoculum of 10^2 organisms
  MIC: 63 µg/mL (≈ 152 µM)
[11]; B, Inoculum of 10^6 organisms
  MIC: > 250 µg/mL
[12]; read-out: Minimum inhibitory concentration, Citrobacter sp., 1 strain
  MIC: > 125 µg/mL
[12]; read-out: Minimum inhibitory concentration, Citrobacter sp., 4 strains, geometric mean when applicable
  MIC: > 125 µg/mL
[13]
  Relative Rate of Hydrolysis (benzylpenicillin = 100): 370
[14]
  Relative Rate of Hydrolysis (benzylpenicillin = 100): 93
[15]
  Relative Rate of Hydrolysis (benzylpenicillin = 100): 2
[16]
  Relative Rate of Hydrolysis (benzylpenicillin = 100): 50
[17]
  Relative Rate of Hydrolysis (benzylpenicillin = 100): 100
[18]
  Relative Rate of Hydrolysis (benzylpenicillin = 100): 7900
[19]
  MIC: 2 µg/mL (≈ 4.81 µM)
